One data set concerns Rhinovirus Type 29. Nature of the data set: Inhibition of cytopathic effect in WI-38 cell culture tubes, rhinovirus type 29. The class given is cell-based. Particulars: Enterovirus; 12.5 μg/ml; WI-38 cells; read-out: Inhibition grade, Rhinovirus Type 29. The protocol:
(§1) The test compound was dissolved in an appropriate solvent (generally dimethyl sulfoxide) and incubated at 56° C. for at least 15 minutes and this solution was then used to prepare various test solutions having the desired concentration of test compound in preheated WI maintenance medium (49% Eagles, 49% medium 199, 2% fetal calf serum and antibiotics).
(§2) Triplicate cell culture tubes (WI-38 human embryonic lung cell culture tubes) were fed with 1 ml of medium containing the compound at specified concentrations and inoculated with 3-300 TCID50 (3-300 times the tissue culture infective dose 50, i.e., the dose required to infect 50% of the cell cultures tested). Simultaneous viral titrations were performed. The tissue cultures were supplemented with fresh medium when necessary (around 3-4 days) until viral titrations were completed.
(§3) The cell culture tubes were examined dialy for cytopathic effect. […] Comparisons were made at that time with the percentage of cell sheet destruction in tubes containing virus compound mixtures. Observed differences of 75% or more were graded "+", 74-50% as "±", and less than 50% as "-" inhibition.

For another data set, the system named is Rhinovirus Type 74. Nature of the data set: Inhibition of cytopathic effect in WI-38 cell culture tubes, rhinovirus type 74. Type of data set: cell-based. Particulars: Enterovirus; 12.5 μg/ml; WI-38 cells; read-out: Inhibition grade, Rhinovirus Type 74. The protocol: as §1, §2, §3
On the technique in general: Damage to the host cells serves as the signal in cytopathic effect assays.

Another data set concerns Rhinovirus Type 6. Put plainly: Inhibition of cytopathic effect in WI-38 cell culture tubes, rhinovirus type 6. The class given is cell-based. Particulars: Enterovirus; 12.5 μg/ml; WI-38 cells; read-out: Inhibition grade, Rhinovirus Type 6. The protocol:
as §1, §2, §3

The next data set concerns Rhinovirus Type 59. Nature of the data set: Inhibition of cytopathic effect in WI-38 cell culture tubes, rhinovirus type 59. Particulars: Enterovirus; 12.5 μg/ml; WI-38 cells; read-out: Inhibition grade, Rhinovirus Type 59. The class given is cell-based. The protocol: as §1, §2, §3
The next data set relates to Hanks Untyped. Nature of the data set: Inhibition of cytopathic effect in WI-38 cell culture tubes, Hanks Untyped. Particulars: Enterovirus; 12.5 μg/ml; WI-38 cells; read-out: Inhibition grade, Hanks Untyped. Type of data set: cell-based, rhinovirus. The protocol:
as §1, §2, §3

The test system of data set [1] is Coxsackie A21 virus (Cox A21). Nature of the data set: Tissue culture testing, Coxsackie A21 virus in HeLa cells. The class given is cell-based. Particulars: 48 and 72 hours, NA = not active at the standard test conditions, read-out: Cox A21: lowest concentration of the compound necessary to cause a 50 percent reduction in cytopathic effect. The procedure: (§4) Monolayered HeLa cells in 16 millimeter (mm) tissue culture dishes were treated with 1 ml of culture medium (Eagles medium supplemented with fetal calf serum) containing subject compound at an appropriate concentration or containing no compound at all. Culture media such as those described herein are more fully described in standard texts, as for example, Kuchler's Biochemical Methods in Cell Culture and Virology, Dowden, Hutchinson and Ross, Inc., Stroudsberg, PA (1977). Following treatment, cells were challenged with 0.05 ml of rhinovirus type 1A (RV-1A), rhinovirus type 2 (RV-2) or Coxsackie A21 virus (Cox A21) in culture medium. Some of the compounds were also tested against rhinovirus type 5 (RV-5), rhinovirus type 8 (RV-8) or rhinovirus type 64 (RV-64). Cell controls received no viruses.
(§5) ^2 Lowest concentration of the compound (μg/ml) necessary to cause

The next data set concerns Rhinovirus Type 64. Nature of the data set: Inhibition of cytopathic effect in WI-38 cell culture tubes, rhinovirus type 64. Type of data set: cell-based. Particulars: Enterovirus; 12.5 μg/ml; WI-38 cells; read-out: Inhibition grade, Rhinovirus Type 64. The procedure: as §1, §2, §3
A further data set relates to Rhinovirus Type 81. Put plainly: Inhibition of cytopathic effect in WI-38 cell culture tubes, rhinovirus type 81. Type of data set: cell-based. Particulars: Enterovirus; 12.5 μg/ml; WI-38 cells; read-out: Inhibition grade, Rhinovirus Type 81. The protocol:
as §1, §2, §3

The subject of a further data set is Rhinovirus Type 19. Nature of the data set: Inhibition of cytopathic effect in WI-38 cell culture tubes, rhinovirus type 19. The conditions noted are these: Enterovirus; 12.5 μg/ml; WI-38 cells; read-out: Inhibition grade, Rhinovirus Type 19. The class given is cell-based. The protocol: as §1, §2, §3
The next data set relates to Rhinovirus Type 58. Put plainly: Inhibition of cytopathic effect in WI-38 cell culture tubes, rhinovirus type 58. The class given is cell-based. Particulars: Enterovirus; 12.5 μg/ml; WI-38 cells; read-out: Inhibition grade, Rhinovirus Type 58. The procedure:
as §1, §2, §3

The test system of data set [2] is rhinovirus type 1A (RV-1A). Nature of the data set: Tissue culture testing, rhinovirus type 1A in HeLa cells. The class given is cell-based. The conditions noted are these: Enterovirus, 48 and 72 hours, NA = not active at the standard test conditions, read-out: RV-1A: lowest concentration of the compound necessary to cause a 50 percent reduction in cytopathic effect. The protocol:
as §4, §5

The test system of data set [3] is rhinovirus type 64 (RV-64). Put plainly: Tissue culture testing, rhinovirus type 64 in HeLa cells. The class given is cell-based. The conditions noted are these: Enterovirus, 48 and 72 hours, NA = not active at the standard test conditions, read-out: RV-64: lowest concentration of the compound necessary to cause a 50 percent reduction in cytopathic effect. The protocol: as §4, §5

In a further data set the test system is Rhinovirus Type 68. Nature of the data set: Inhibition of cytopathic effect in WI-38 cell culture tubes, rhinovirus type 68. Particulars: Enterovirus; 12.5 μg/ml; WI-38 cells; read-out: Inhibition grade, Rhinovirus Type 68. The class given is cell-based. The procedure:
as §1, §2, §3

The next data set relates to rhinovirus type 2 (RV-2). Put plainly: Tissue culture testing, rhinovirus type 2 in HeLa cells. The class given is cell-based. The conditions noted are these: Enterovirus, 48 and 72 hours, NA = not active at the standard test conditions, read-out: RV-2: lowest concentration of the compound necessary to cause a 50 percent reduction in cytopathic effect. The procedure:
as §4, §5

A further data set deals with Rhinovirus Type 17. Put plainly: Inhibition of cytopathic effect in WI-38 cell culture tubes, rhinovirus type 17. Particulars: Enterovirus; 12.5 μg/ml; WI-38 cells; read-out: Inhibition grade, Rhinovirus Type 17. Type of data set: cell-based. The protocol:
as §1, §2, §3

Another data set deals with Cox A21. Nature of the data set: Single Oral Dose test in mice challenged IP with Cox A21. Type of data set: in vivo, Swiss male mice. The conditions noted are these: 200 mg/kg P.O. 3 h after IP challenge; >3.84 significant (95% confidence level). The procedure: In addition, some of the compounds were tested in animals utilizing the following procedure, hereinafter referred to as the "Single Oral Dose" test. Swiss male mice, 8-12 grams in weight were challenged intraperitoneally (IP) with 0.2 ml of a normally lethal dose, i.e., a virus dose sufficient to cause […].80-100% mortality in infected animals within 10 days of challenge of Cox A21, in phosphate buffered saline containing 1% heat inactivated fetal calf serum. Three hours later mice were treated orally (P.O.) with 0.2 ml of compound suspended in 0.5% hydroxypropyl methylcellulose (Methocel) or with 0.2 ml of 0.5% Methocel containing no compound. […] Mice were observed daily for 7-10 days post-challenge and deaths recorded. A modified Mantel-Haenzel combined chi-square procedure was used to determine significant difference between virus control and treated groups. Chi-square values greater than 3.84 are considered significant (95% confidence level) in this test.

The next data set has as its system Rhinovirus Type 56. Nature of the data set: Inhibition of cytopathic effect in WI-38 cell culture tubes, rhinovirus type 56. The class given is cell-based. Particulars: Enterovirus; 12.5 μg/ml; WI-38 cells; read-out: Inhibition grade, Rhinovirus Type 56. The procedure: as §1, §2, §3
The next data set relates to Rhinovirus Type 60. Put plainly: Inhibition of cytopathic effect in WI-38 cell culture tubes, rhinovirus type 60. Particulars: Enterovirus; 12.5 μg/ml; WI-38 cells; read-out: Inhibition grade, Rhinovirus Type 60. The class given is cell-based. The procedure:
as §1, §2, §3

The subject of another data set is Rhinovirus Type 39. Put plainly: Inhibition of cytopathic effect in WI-38 cell culture tubes, rhinovirus type 39. The conditions noted are these: Enterovirus; 12.5 μg/ml; WI-38 cells; read-out: Inhibition grade, Rhinovirus Type 39. Type of data set: cell-based. The procedure: as §1, §2, §3
A short description of data set [4]: Cytotoxicity in tissue culture testing (HeLa monolayers). Type of data set: cell-based. Particulars: human; HeLa cells; observed at 48 and 72 hours post-treatment; read-out: Cytotoxicity: concentration of the compound found to be toxic to the cell. The protocol:
as §4
^1 Cytotoxicity figures represent the concentration of the compound, […]

The subject of the next data set is Rhinovirus Type 4. Nature of the data set: Inhibition of cytopathic effect in WI-38 cell culture tubes, rhinovirus type 4. The class given is cell-based. Particulars: Enterovirus; 12.5 μg/ml; WI-38 cells; read-out: Inhibition grade, Rhinovirus Type 4. The procedure:
as §1, §2, §3

Another data set concerns Rhinovirus Type 75. Put plainly: Inhibition of cytopathic effect in WI-38 cell culture tubes, rhinovirus type 75. Type of data set: cell-based. The conditions noted are these: Enterovirus; 12.5 μg/ml; WI-38 cells; read-out: Inhibition grade, Rhinovirus Type 75. The procedure:
as §1, §2, §3

The test system of a further data set is Rhinovirus Type 10. Put plainly: Inhibition of cytopathic effect in WI-38 cell culture tubes, rhinovirus type 10. Type of data set: cell-based. The conditions noted are these: Enterovirus; 12.5 μg/ml; WI-38 cells; read-out: Inhibition grade, Rhinovirus Type 10. The procedure:
as §1, §2, §3

The next data set relates to Rhinovirus Type 13. Nature of the data set: Inhibition of cytopathic effect in WI-38 cell culture tubes, rhinovirus type 13. The conditions noted are these: Enterovirus; 12.5 μg/ml; WI-38 cells; read-out: Inhibition grade, Rhinovirus Type 13. Type of data set: cell-based. The procedure:
as §1, §2, §3

For another data set, the system named is Rhinovirus Type 8. Nature of the data set: Inhibition of cytopathic effect in WI-38 cell culture tubes, rhinovirus type 8. Type of data set: cell-based. The conditions noted are these: Enterovirus; 12.5 μg/ml; WI-38 cells; read-out: Inhibition grade, Rhinovirus Type 8. The procedure: as §1, §2, §3
The test system of the next data set is Rhinovirus Type 21. Nature of the data set: Inhibition of cytopathic effect in WI-38 cell culture tubes, rhinovirus type 21. Type of data set: cell-based. Particulars: Enterovirus; 12.5 μg/ml; WI-38 cells; read-out: Inhibition grade, Rhinovirus Type 21. The protocol:
as §1, §2, §3

The subject of data set [5] is 20 different rhinoviruses. Put plainly: Summary of WI-38 tissue culture testing against 20 rhinoviruses. The class given is cell-based. Particulars: of 20 rhinoviruses. The procedure:
as §1, §2, §3

≈ marks a conversion by molar mass, not a printed value.

By inhibition is commonly meant the relative decrease from the control value, in per cent. In the case of `CS(=O)(=O)c1ccc(Oc2ccc(Cl)cc2)nc1` [Example 32, 2-(4-chlorophenoxy)-5-(methylsulfonyl)pyridine], the inhibition at 12.5 µg/mL in the data set with Rhinovirus Type 29 was at least 75%; with Rhinovirus Type 74, at least 75%; in the data set with Rhinovirus Type 6 it was 50 to 74%; in the data set on Rhinovirus Type 59, at least 75%; with Hanks Untyped, at least 75%; in the data set on Rhinovirus Type 64, at least 75%. In addition, the inhibition at 12.5 µg/mL in the data set on Rhinovirus Type 81 is 50 to 74%; in the data set with Rhinovirus Type 19, at least 75%; with Rhinovirus Type 58 it was at least 75%; in the data set on Rhinovirus Type 68, at least 75%; with Rhinovirus Type 17, at least 75%; in the data set with Rhinovirus Type 56 it was at least 75%. The inhibition at 12.5 µg/mL was at least 75% with Rhinovirus Type 60; under 50% in the data set with Rhinovirus Type 39; at least 75% in the data set on Rhinovirus Type 4; under 50% in the data set on Rhinovirus Type 75; at least 75% in the data set on Rhinovirus Type 10; under 50% in the data set on Rhinovirus Type 13. Further, the values for the inhibition at 12.5 µg/mL in the data set with Rhinovirus Type 8 and with Rhinovirus Type 21 were under 50% and 50 to 74%, respectively. Also, the EC50 is 3.12 µg/mL (≈ 11 µM) in data set [1], 1.25 µg/mL (≈ 4.41 µM) in [2], 1.25 µg/mL (≈ 4.41 µM) in data set [3] and 2.5 µg/mL (≈ 8.81 µM) with rhinovirus type 2 (RV-2). In addition, in the data set with Cox A21, the “Single Oral Dose X^2 (chi-square, deaths vs virus control)” value is given as 52.866. Further, in [4], the MCC came to 50 µg/mL.
For the compound `CS(=O)(=O)c1ccc(Oc2ccc(C(=O)c3ccccc3)cc2)nc1` [(4-((5-(methylsulfonyl)-2-pyridinyl)oxy)phenyl)phenylmethanone], in [5] (25 μg/ml), the “number of test rhinoviruses against which the compound was graded "+"” value is given as 13 test rhinoviruses and the “number of test rhinoviruses against which the compound was graded "±"” value amounted to 3.
Turning to `CS(=O)(=O)c1ccc(Oc2ccc(Cl)c(Cl)c2)nc1` [2-(3,4-dichlorophenoxy)-5-(methylsulfonyl)pyridine], in data set [5] (25 μg/ml), the “number of test rhinoviruses against which the compound was graded "+"” value amounted to 14 test rhinoviruses and the “number of test rhinoviruses against which the compound was graded "±"” value is 2.
With `CCS(=O)(=O)c1ccc(Oc2ccc(Cl)cc2)nc1` [2-(4-chlorophenoxy)-5-(ethylsulfonyl)pyridine], in [5] (12.5 μg/ml), the “number of test rhinoviruses against which the compound was graded "+"” value is listed as 13 test rhinoviruses and the “number of test rhinoviruses against which the compound was graded "±"” value came to 4.

The record behind these values is US4371537A, “Sulfur-substituted phenoxypyridines having antiviral activity” (The Dow Chemical Company, priority 1981, dated 1983).
